According to patent US20150238487A1, “NOVEL ERGOLINE DERIVATIVES AND USES THEREOF” (MAP Pharmaceuticals, Inc., priority 2012, published 2015):

How the values were obtained:
[1] = molecular target: T1, Adrenergic α1B (Homo sapiens, UniProt P35368); test: Aequorin assay, Adrenergic α1B; assay type: cell-based; conditions: antagonism, CHO-K1 mAeq, read-out: Activity (Antagonism: IC50), Adrenergic a1B
T1 construct: expressed in transfected cells; host or cells: CHO-K1 mAeq
Description: (§1) Receptor […] activity assays were performed using 8′OH-2-CF3-dihydroergotamine (8′OH-2-CF3-DHE). Table 1 summarizes the cell lines (CHO-K1/HEK293 transfected with relevant human receptor) and the assays performed to detect any agonist or antagonist activity.
(§2) Aequorin assays were conducted to monitor activity for 8′OH-2CF3-dihydroergotamine (8′OH-2CF3-DHE) against the receptors indicated in Table 1 above (except for mGlu3 and mGlu5). CHO-K1 cells coexpressing mitochondrial apoaequorin and the recombinant human receptor of interest were grown to mid-log phase in culture media without antibiotics and then detached with PBS-EDTA, centrifuged and resuspended in assay buffer (DMEM/HAM's F12 with HEPES, without phenol red+0.1% BSA, protease free) at a concentration of 1×10^6 cell/mL. […]
(§3) 50 μL of the cell suspension was mixed with 50 μL of test or reference agonist in a 96-well plate. The resulting emission of light was recorded using Hamamatsu Functional Drug Screening System 6000 (FDSS 6000) luminometer. […]
(§4) To standardize the emission of recorded light (and determine of the “100% signal”) across plates and across different experiments, some wells contained 100 μM digitonin or a saturating concentration of ATP (20 μM).

[2] = molecular target: T2, Adrenergic α1D (Homo sapiens, UniProt P25100); test: Aequorin assay, Adrenergic α1D; assay type: cell-based; conditions: antagonism, CHO-K1 mAeq, read-out: Activity (Antagonism: IC50), Adrenergic a1D
T2 construct: expressed in transfected cells; host or cells: CHO-K1 mAeq
T2 sequence (P25100 whole entry): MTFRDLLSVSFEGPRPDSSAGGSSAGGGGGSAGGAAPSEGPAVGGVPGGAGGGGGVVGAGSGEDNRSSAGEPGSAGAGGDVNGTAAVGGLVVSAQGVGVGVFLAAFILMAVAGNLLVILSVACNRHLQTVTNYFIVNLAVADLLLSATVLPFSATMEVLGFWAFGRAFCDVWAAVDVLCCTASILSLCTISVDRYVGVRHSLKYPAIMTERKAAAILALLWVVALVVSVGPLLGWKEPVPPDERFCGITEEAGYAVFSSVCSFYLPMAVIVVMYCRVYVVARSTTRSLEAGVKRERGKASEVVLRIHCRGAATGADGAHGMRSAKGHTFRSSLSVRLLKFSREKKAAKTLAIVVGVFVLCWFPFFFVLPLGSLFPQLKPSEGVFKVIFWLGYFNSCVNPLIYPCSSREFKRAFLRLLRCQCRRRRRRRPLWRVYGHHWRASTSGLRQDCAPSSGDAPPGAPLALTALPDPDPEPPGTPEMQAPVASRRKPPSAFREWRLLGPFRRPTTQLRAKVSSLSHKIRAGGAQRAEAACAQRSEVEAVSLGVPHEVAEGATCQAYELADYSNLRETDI
Description: as §1, §2, §3, §4

[3] = molecular target: T3, Adrenergic α2B (Homo sapiens, UniProt P18089); test: GTPγ[35S] assay, Adrenergic α2B; assay type: biochemical; conditions: antagonism, CHO-K1 membranes, read-out: Activity (Antagonism: IC50), Adrenergic a2B
T3 construct: expressed in transfected cells; host or cells: CHO-K1 (membrane extracts)
T3 sequence (P18089 whole entry): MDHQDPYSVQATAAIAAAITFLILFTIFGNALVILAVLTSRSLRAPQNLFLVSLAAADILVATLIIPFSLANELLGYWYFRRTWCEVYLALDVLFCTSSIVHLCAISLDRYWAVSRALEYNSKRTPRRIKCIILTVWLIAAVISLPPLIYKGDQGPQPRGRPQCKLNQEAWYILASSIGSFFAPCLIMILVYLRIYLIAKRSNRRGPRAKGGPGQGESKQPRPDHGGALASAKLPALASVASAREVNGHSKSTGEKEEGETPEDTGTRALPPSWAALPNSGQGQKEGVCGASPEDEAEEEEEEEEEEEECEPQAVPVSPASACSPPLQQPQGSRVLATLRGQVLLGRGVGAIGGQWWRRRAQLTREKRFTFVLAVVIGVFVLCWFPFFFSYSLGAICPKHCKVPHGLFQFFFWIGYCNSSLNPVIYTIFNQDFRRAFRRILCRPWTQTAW
Description: as §1
(§5) GTPγS studies were conducted to monitor agonist activity for 8′OH-2CF3-dihydroergotamine (8′OH-2CF3-DHE) against the receptors indicated in Table 1 above. Reagents used were the following: Assay buffer (20 mM HEPES, pH 7.4; 100 mM NaCl; 10 μg/mL saponin; 30 mM MgCl2); Membranes (recombinant human receptor membrane extracts were thawed on ice and diluted in assay buffer to give 1000 μg/mL ([…]) and kept on ice); GDP (diluted in assay buffer to give 30 μM solution (3 μM final concentration); beads (PVT-WGA (Amersham, RPNQ001), diluted in assay buffer at 25 mg/mL (0.25 mg/10 μL)); GTPγ^35S (Perkin Elmer, NEG030X), diluted in assay buffer to give 0.1 nM (final concentration); and ligand (agonist/antagonist diluted in assay buffer).
(§6) Membranes were mixed with GDP (1:1) and incubated for at least 15 minutes on ice. In parallel GTPγ^35S was mixed with the beads (1:1) just before starting the reaction. […] The plates were then centrifuged for 10 minutes at 2000 rpm and incubated at room temperature for 1 hour and counted for 1 min/well with a Perkin Elmer TopCount reader.

[4] = molecular target: T4, Serotonin 5-HT1B (Homo sapiens, UniProt P28222); test: GTPγ[35S] assay, Serotonin 5-HT1B; assay type: biochemical; conditions: agonism, CHO-K1 membranes
T4 construct: expressed in transfected cells; host or cells: CHO-K1 (membrane extracts)
T4 sequence (P28222 whole entry): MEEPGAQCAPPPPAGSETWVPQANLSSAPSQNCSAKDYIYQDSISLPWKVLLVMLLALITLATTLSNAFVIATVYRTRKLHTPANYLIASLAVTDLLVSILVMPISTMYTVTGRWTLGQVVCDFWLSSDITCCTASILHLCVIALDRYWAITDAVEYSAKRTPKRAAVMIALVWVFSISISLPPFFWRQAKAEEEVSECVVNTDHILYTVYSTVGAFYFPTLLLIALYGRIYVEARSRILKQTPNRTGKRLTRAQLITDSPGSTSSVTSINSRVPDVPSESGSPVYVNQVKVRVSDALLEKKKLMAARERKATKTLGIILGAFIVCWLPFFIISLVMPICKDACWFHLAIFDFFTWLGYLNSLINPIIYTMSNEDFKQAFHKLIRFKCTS
Description: as §1, §5, §6

[5] = molecular target: T5, Serotonin 5-HT1D (Homo sapiens, UniProt P28221); test: GTPγ[35S] assay, Serotonin 5-HT1D; assay type: biochemical; conditions: agonism, CHO-K1 membranes
T5 construct: expressed in transfected cells; host or cells: CHO-K1 (membrane extracts)
T5 sequence (P28221 whole entry): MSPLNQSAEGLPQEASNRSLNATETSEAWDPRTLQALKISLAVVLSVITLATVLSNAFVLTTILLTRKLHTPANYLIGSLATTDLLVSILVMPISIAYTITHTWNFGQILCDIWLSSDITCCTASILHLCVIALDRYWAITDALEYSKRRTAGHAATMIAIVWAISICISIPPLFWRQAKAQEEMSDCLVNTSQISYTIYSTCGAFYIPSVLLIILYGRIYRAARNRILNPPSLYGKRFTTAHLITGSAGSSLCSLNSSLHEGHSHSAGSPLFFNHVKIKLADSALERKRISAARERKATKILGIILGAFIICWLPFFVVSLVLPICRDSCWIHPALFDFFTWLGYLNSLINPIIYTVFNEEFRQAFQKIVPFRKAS
Description: as §1, §5, §6

[6] = molecular target: T6, Serotonin 5-HT2B (Homo sapiens, UniProt P41595); test: Aequorin assay, Serotonin 5-HT2B; assay type: cell-based; conditions: antagonism; CHO-K1 mAeq Gα16, Aequorin
T6 construct: expressed in transfected cells; host or cells: CHO-K1 mAeq Gα16
T6 sequence (P41595 whole entry): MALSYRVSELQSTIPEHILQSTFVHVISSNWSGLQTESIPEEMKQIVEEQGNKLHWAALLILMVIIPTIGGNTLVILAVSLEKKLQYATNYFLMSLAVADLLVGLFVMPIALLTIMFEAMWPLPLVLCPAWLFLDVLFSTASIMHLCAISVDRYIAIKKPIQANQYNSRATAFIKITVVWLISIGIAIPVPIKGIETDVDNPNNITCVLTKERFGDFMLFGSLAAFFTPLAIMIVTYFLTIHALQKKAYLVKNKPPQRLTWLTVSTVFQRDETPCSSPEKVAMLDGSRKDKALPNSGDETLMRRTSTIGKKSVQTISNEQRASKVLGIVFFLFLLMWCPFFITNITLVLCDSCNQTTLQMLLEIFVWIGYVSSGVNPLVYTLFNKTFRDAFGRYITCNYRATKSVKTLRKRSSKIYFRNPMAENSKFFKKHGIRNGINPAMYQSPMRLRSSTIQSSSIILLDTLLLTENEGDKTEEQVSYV
Description: as §1, §2, §3, §4

[7] = molecular target: T7, Serotonin 5-HT3 (Homo sapiens, UniProt P46098); test: Aequorin assay, Serotonin 5-HT3; assay type: cell-based; conditions: antagonism, HEK-293 mAeq
T7 construct: expressed in transfected cells; host or cells: HEK-293 mAeq
T7 sequence (P46098 24-478): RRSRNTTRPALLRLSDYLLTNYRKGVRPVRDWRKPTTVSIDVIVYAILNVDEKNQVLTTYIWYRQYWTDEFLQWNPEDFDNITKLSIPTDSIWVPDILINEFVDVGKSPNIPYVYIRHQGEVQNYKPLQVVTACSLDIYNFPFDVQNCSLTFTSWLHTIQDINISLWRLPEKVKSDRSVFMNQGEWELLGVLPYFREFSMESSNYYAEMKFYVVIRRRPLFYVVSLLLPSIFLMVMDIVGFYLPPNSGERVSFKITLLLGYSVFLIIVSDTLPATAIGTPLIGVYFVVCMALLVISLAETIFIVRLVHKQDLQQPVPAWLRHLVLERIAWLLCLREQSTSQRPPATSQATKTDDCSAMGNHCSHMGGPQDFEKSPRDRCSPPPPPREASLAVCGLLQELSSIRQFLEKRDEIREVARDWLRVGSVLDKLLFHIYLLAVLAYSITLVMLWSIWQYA
Description: as §1, §2, §3, §4

[8] = test system: Calcitonin (AM1/AM2); test: cAMP HTRF assay, Calcitonin AM1/AM2; assay type: cell-based, human; conditions: CHO-K1, cAMP
Description: as §1
(§7) cAMP HTRF (Gs) studies were conducted to monitor activity for 8′OH-2CF3-dihydroergotamine (8′OH-2CF3-DHE) against the receptors indicated in Table 1 above. Cells expressing the human recombinant receptor of interest were grown in media without antibiotic and detached by gentle flushing with PBS-EDTA (5 mM EDTA), recovered by centrifugation and resuspended in assay buffer (KRH: 5 mM KCl, 1.25 mM MgSO4, 124 mM NaCl, 25 mM HEPES, 13.3 mM glucose, 1.25 mM KH2PO4, 1.45 mM CaCl2, 0.5 g/L BSA). Dose response curves were performed in parallel with the reference compounds. For agonist tests (96-well plates), 12 μL of cells was mixed with 12 μL of the test compound at increasing concentrations and then incubated for 30 minutes at room temperature. Lysis buffer was added and after a 1 hour incubation, cAMP concentrations was determined according to the manufacturer specification with the HTRF kit. […] Lysis buffer was added and after a 1 hour incubation, cAMP concentrations were determined according to the manufacturer specification, with the HTRF kit.

[9] = molecular target: T8, OX1 (Homo sapiens, UniProt O43613); test: Aequorin assay, Orexin OX1; assay type: cell-based; conditions: antagonism, CHO-AEQ
T8 construct: expressed in transfected cells; host or cells: CHO-AEQ (CHO-K1 coexpressing mitochondrial apoaequorin)
T8 sequence (O43613 whole entry): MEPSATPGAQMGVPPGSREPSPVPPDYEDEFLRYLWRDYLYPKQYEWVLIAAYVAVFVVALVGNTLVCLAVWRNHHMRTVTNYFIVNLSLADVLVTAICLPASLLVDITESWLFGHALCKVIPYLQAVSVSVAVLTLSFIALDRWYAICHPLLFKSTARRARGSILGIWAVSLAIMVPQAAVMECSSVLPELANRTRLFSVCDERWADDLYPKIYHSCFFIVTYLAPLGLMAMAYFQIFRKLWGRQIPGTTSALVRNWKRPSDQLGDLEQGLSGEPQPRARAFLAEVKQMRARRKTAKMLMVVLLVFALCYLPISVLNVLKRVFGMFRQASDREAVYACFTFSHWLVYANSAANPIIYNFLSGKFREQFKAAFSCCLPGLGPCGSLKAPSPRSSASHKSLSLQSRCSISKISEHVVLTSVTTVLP
Description: as §1, §2, §3, §4

[10] = molecular target: T9, Adenosine A2a (Homo sapiens, UniProt P29274); test: cAMP HTRF assay, Adenosine A2a; assay type: cell-based; conditions: agonism; HEK293, cAMP
T9 construct: expressed in transfected cells; host or cells: HEK293
T9 sequence (P29274 whole entry): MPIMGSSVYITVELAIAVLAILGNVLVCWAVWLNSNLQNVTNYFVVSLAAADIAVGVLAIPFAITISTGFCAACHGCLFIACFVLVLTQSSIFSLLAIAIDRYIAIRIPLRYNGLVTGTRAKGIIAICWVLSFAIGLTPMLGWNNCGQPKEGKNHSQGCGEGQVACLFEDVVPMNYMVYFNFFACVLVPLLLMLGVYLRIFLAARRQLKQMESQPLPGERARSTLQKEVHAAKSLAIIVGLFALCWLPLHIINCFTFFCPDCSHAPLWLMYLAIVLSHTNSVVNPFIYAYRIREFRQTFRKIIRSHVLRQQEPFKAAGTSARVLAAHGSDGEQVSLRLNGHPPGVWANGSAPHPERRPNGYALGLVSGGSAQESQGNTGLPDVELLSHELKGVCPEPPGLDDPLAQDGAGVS
Description: as §1, §7

T1 sequence (P35368 whole entry): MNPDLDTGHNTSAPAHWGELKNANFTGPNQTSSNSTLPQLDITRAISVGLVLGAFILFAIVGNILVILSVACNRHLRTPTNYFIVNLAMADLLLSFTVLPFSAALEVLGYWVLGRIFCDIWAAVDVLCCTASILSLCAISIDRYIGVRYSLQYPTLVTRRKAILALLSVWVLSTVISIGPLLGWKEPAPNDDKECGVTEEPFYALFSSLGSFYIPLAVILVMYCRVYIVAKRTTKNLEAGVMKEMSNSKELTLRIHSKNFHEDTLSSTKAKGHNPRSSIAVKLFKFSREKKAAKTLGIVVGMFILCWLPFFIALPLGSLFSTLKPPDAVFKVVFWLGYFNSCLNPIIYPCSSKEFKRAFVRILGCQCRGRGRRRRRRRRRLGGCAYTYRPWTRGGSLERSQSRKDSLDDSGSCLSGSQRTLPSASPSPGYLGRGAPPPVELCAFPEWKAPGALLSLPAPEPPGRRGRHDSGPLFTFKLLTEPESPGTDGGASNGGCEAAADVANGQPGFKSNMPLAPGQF

For `CN1C[C@H](C(=O)N[C@]2(C)O[C@@]3(O)[C@@H]4CC[C@@H](O)N4C(=O)[C@H](Cc4ccccc4)N3C2=O)C[C@@H]2c3cccc4[nH]c(C(F)(F)F)c(c34)C[C@H]21` [8′OH-2-CF3-DHE, 8′-Hydroxy-2-CF3-dihydroergotamine], the IC50 [1] was 10.9 nM, the IC50 [2] was 9.58 nM and the IC50 [3] was 777 nM. It also gave an EC50 [4] of 405 nM, an EC50 [5] of 5.27 nM and an IC50 [6] of 88.2 nM. For the same compound, the IC50 [7] was 2760 nM, the “Activity (Agonism: EC50; Antagonism: IC50), Calcitonin (AM1/AM2)” value [8] was “Inactive” and the IC50 [9] was greater than 10000 nM. It also gave an EC50 [10] of 5.27 nM and an Emax [10] of 25%.
